Test: mn = molality of the nth substance listed, in mol/kg
Settings: 100 kPa, Liquid; for speed of sound: Frequency=3 MHz, Sing-around technique in a fixed-path interferometer; for mass density: Vibrating tube method

CCN(CC)C(N)=O [1,1-diethylurea] + O
Settings | mass density, 288.15 K [kg/m3] | mass density, 293.15 K [kg/m3] | mass density, 298.15 K [kg/m3] | mass density, 303.15 K [kg/m3] | mass density, 308.15 K [kg/m3] | speed of sound, 288.15 K [m/s] | speed of sound, 293.15 K [m/s] | speed of sound, 298.15 K [m/s] | speed of sound, 303.15 K [m/s] | speed of sound, 308.15 K [m/s]
m1 = 0.0535 | 999.376 | 998.462 | 997.288 | 995.875 | 994.243 | – | – | – | – | –
m1 = 0.0856 | 999.546 | 998.62 | 997.435 | 996.012 | 994.369 | 1474.9 | 1490.4 | 1503.9 | 1515.7 | 1525.8
m1 = 0.1181 | 999.725 | 998.786 | 997.589 | 996.154 | 994.501 | 1478 | 1493.2 | 1506.6 | 1518.1 | 1528
m1 = 0.1603 | 999.959 | 999.002 | 997.788 | 996.338 | 994.672 | 1482 | 1496.8 | 1509.9 | 1521.2 | 1530.8
m1 = 0.2142 | 1000.27 | 999.288 | 998.052 | 996.585 | 994.898 | 1487 | 1501.4 | 1514.1 | 1525 | 1534.3
m1 = 0.2689 | 1000.59 | 999.586 | 998.328 | 996.837 | 995.135 | 1491.9 | 1506 | 1518.2 | 1528.8 | 1537.8
m1 = 0.3254 | 1000.93 | 999.905 | 998.628 | 997.108 | 995.381 | 1496.9 | 1510.3 | 1522.2 | 1532.6 | 1541.3

CN(C)C(N)=O [N,N-dimethylurea] + O
Settings | mass density, 288.15 K [kg/m3] | mass density, 293.15 K [kg/m3] | mass density, 298.15 K [kg/m3] | mass density, 303.15 K [kg/m3] | mass density, 308.15 K [kg/m3] | speed of sound, 288.15 K [m/s] | speed of sound, 293.15 K [m/s] | speed of sound, 298.15 K [m/s] | speed of sound, 303.15 K [m/s] | speed of sound, 308.15 K [m/s]
m1 = 0.0526 | 999.644 | 998.733 | 997.562 | 996.154 | 994.527 | 1469.9 | 1485.7 | 1499.7 | 1511.8 | 1522.3
m1 = 0.0842 | 999.97 | 999.051 | 997.869 | 996.454 | 994.818 | 1471.8 | 1487.5 | 1501.3 | 1513.4 | 1523.7
m1 = 0.1149 | 1000.29 | 999.36 | 998.171 | 996.746 | 995.103 | 1473.7 | 1489.2 | 1502.9 | 1514.8 | 1525
m1 = 0.1572 | 1000.73 | 999.785 | 998.583 | 997.148 | 995.495 | 1476.3 | 1491.6 | 1505.1 | 1516.8 | 1526.8
m1 = 0.2104 | 1001.28 | 1000.32 | 999.103 | 997.653 | 995.988 | 1479.6 | 1494.6 | 1507.8 | 1519.3 | 1529.1
m1 = 0.2629 | 1001.83 | 1000.85 | 999.617 | 998.153 | 996.474 | 1482.6 | 1497.4 | 1510.4 | 1521.7 | 1531.3
m1 = 0.318 | 1002.4 | 1001.4 | 1000.15 | 998.673 | 996.98 | 1485.9 | 1500.4 | 1513.2 | 1524.2 | 1533.6

O [water] + CCCCNC(N)=O
Settings | mass density [kg/m3]
308.15 K, m2 = 0 | 994.065

CCCNC(N)=O [N-propylurea] + O
Settings | mass density, 288.15 K [kg/m3] | mass density, 293.15 K [kg/m3] | mass density, 298.15 K [kg/m3] | mass density, 303.15 K [kg/m3] | mass density, 308.15 K [kg/m3] | speed of sound, 288.15 K [m/s] | speed of sound, 293.15 K [m/s] | speed of sound, 298.15 K [m/s] | speed of sound, 303.15 K [m/s] | speed of sound, 308.15 K [m/s]
m1 = 0.0494 | 999.566 | 998.653 | 997.48 | 996.069 | 994.44 | – | – | – | – | –
m1 = 0.079 | 999.848 | 998.924 | 997.74 | 996.318 | 994.678 | – | – | – | – | –
m1 = 0.0791 | – | – | – | – | – | 1473.3 | 1488.9 | 1502.6 | 1514.5 | 1524.8
m1 = 0.1089 | 1000.13 | 999.198 | 998.003 | 996.573 | 994.925 | 1475.8 | 1491.1 | 1504.7 | 1516.4 | 1526.5
m1 = 0.1484 | 1000.52 | 999.564 | 998.356 | 996.91 | 995.249 | 1479 | 1494.1 | 1507.4 | 1518.9 | 1528.8
m1 = 0.1983 | 1000.99 | 1000.02 | 998.792 | 997.329 | 995.652 | 1483 | 1497.8 | 1510.8 | 1522 | 1531.7
m1 = 0.249 | 1001.49 | 1000.49 | 999.244 | 997.763 | 996.069 | 1487.1 | 1501.6 | 1514.2 | 1525.2 | 1534.6
m1 = 0.3012 | 1001.99 | 1000.97 | 999.704 | 998.202 | 996.489 | 1491.1 | 1505.3 | 1517.7 | 1528.4 | 1537.5

CCCCNC(N)=O [N-butylurea] + O
Settings | mass density, 288.15 K [kg/m3] | mass density, 293.15 K [kg/m3] | mass density, 298.15 K [kg/m3] | mass density, 303.15 K [kg/m3] | mass density, 308.15 K [kg/m3] | speed of sound, 288.15 K [m/s] | speed of sound, 293.15 K [m/s] | speed of sound, 298.15 K [m/s] | speed of sound, 303.15 K [m/s] | speed of sound, 308.15 K [m/s]
m1 = 0.0486 | 999.444 | 998.527 | 997.349 | 995.933 | 994.297 | 1471.6 | 1487.2 | 1501.1 | 1513.1 | 1523.5
m1 = 0.0781 | 999.638 | 998.707 | 997.514 | 996.086 | 994.438 | 1474.5 | 1490 | 1503.6 | 1515.4 | 1525.6
m1 = 0.1078 | 999.835 | 998.889 | 997.683 | 996.243 | 994.583 | 1477.5 | 1492.7 | 1506.1 | 1517.7 | 1527.6
m1 = 0.1473 | 1000.1 | 999.134 | 997.909 | 996.448 | 994.774 | 1481.3 | 1496.2 | 1509.3 | 1520.6 | 1530.3
m1 = 0.1974 | 1000.44 | 999.45 | 998.201 | 996.718 | 995.022 | 1486.1 | 1500.6 | 1513.3 | 1524.3 | 1533.7
m1 = 0.2475 | 1000.78 | 999.763 | 998.489 | 996.985 | 995.266 | 1490.8 | 1504.9 | 1517.3 | 1527.9 | 1536.9
m1 = 0.2986 | 1001.14 | 1000.09 | 998.789 | 997.259 | 995.516 | 1495.5 | 1509.2 | 1521.2 | 1531.5 | 1540.2

NC(N)=O [urea] + O
Settings | mass density, 288.15 K [kg/m3] | mass density, 293.15 K [kg/m3] | mass density, 298.15 K [kg/m3] | mass density, 303.15 K [kg/m3] | mass density, 308.15 K [kg/m3] | speed of sound, 288.15 K [m/s] | speed of sound, 293.15 K [m/s] | speed of sound, 298.15 K [m/s] | speed of sound, 303.15 K [m/s] | speed of sound, 308.15 K [m/s]
m1 = 0.0504 | 999.922 | 999.019 | 997.847 | 996.442 | 994.816 | 1468.2 | 1483.9 | 1498 | 1510.3 | 1520.9
m1 = 0.0807 | 1000.43 | 999.511 | 998.329 | 996.911 | 995.281 | 1469.1 | 1484.8 | 1498.8 | 1511 | 1521.6
m1 = 0.1107 | 1000.92 | 999.994 | 998.802 | 997.378 | 995.738 | 1470 | 1485.6 | 1499.6 | 1511.8 | 1522.2
m1 = 0.151 | 1001.58 | 1000.64 | 999.436 | 997.998 | 996.351 | 1471.3 | 1486.8 | 1500.6 | 1512.7 | 1523.1
m1 = 0.2005 | 1002.39 | 1001.43 | 1000.21 | 998.757 | 997.097 | 1472.8 | 1488.1 | 1501.9 | 1513.9 | 1524.2
m1 = 0.2512 | 1003.21 | 1002.23 | 1000.99 | 999.529 | 997.855 | 1474.1 | 1489.5 | 1503.1 | 1515 | 1525.3

From the NIST ThermoML archive (doi:10.1016/j.jct.2014.07.012)
